Patent US12274686B2, “Specialized pro-resolving mediators (SPMs) as melanocyte growth promoter and pro-survival factors and uses thereof” (THE UNIVERSITY OF BRITISH COLUMBIA, priority 2021, dated 2025)

What was measured:
[1] = tested on: vitiligo patches; assay: Topical treatment of vitiligo patches refractory to topical anti-inflammatory therapies (single subject); type: in vivo, human; details: for change in the size of the white areas: mometasone fumarate 0.1% cream BID (abdominal macule), clobetasol 0.05% cream OD (two patches right hand), 12 months
Description: Topical maresin 1 was tested on a person with a 5 year and 3 month history of developing two white patches on the dorsal right hand and one white macule on the right mid abdomen. […] There were no signs of inflammation such as redness, or presence of scales. There were no symptoms such as itchiness or pain. […] On examination, the subject appeared to be well. Complete skin examination was performed. The entire skin appeared to be normal aside from three lesions of depigmentation: (1) a 1.5×1.2 cm white patch on the mid right abdomen; (2) a 1.3×1.0 cm white patch on the dorsum of right third metacarpal head; and (3) a 1.0×0.8 cm sized white macule on the dorsum of right 4th metacarpal head.

[2] = tested on: primary human epidermal melanocytes; assay: Melanocyte survival assay in vitro (growth factor supplement withdrawn), CellTiter-Blue viability; type: cell-based; details: for ability to protect melanocytes: physiological distress
Description: Human neonatal epidermal melanocytes (HEMn-DP) were purchased from ThermoFisher Scientific™ (C-202-5C). Melanocytes were cultured in full growth medium (Medium 254 supplemented with Human Melanocyte Growth Supplement, both purchased from ThermoFisher Scientific™. Cells were expanded and passaged 3 times before conducting the assay. 4×10^3 melanocytes per well were seeded into 96 well plate and allowed to recover for 4 hours before the treatment was added for each condition in 100 μl final volume. Cells were treated and kept in 37° C., 5% CO2 for 3 days. Viability assay was conducted using CellTiter-Blue Cell Viability Assay Kit™ (Promega™, G8080) and signal was measured using GlowMax™ plate reader (Promega™) after 4 hours at 37° C., 5% CO2. Merasin 1 (Cayman™) was diluted into 1 μg/ml using PBS and added to the culture medium at concentrations ranging from 0 to 1 μg/ml. For survival assays, the procedure was essentially the same as proliferation assay except that melanocytes were kept in M254 medium without human melanocyte growth supplement. The assays were conducted in triplicates.

[3] = tested on: skin resident M2 macrophages; assay: Skin resident M1 (CD80+) / M2 (CD163+) macrophages by flow cytometry in B6 mice with or without maresin 1; type: in vivo, C57BL/J6 mice
Description: For isolation of macrophages from murine skin: 1 cm×1 cm sized skin samples were cut into small pieces, placed in a solution of PBS containing 1 mg/ml dispase (Roche™) and incubated for 1 hour at 37° C. The samples were then transferred into RPMI containing 1 mg/ml Collagenase IV and 0.1 mg/ml DNAse (Sigma Aldrich™) and incubated for 90 minutes at 37° C. Single cell suspension was prepared by passing through 100 μm strainer. Cells were washed and stained in PBS without Ca^2+ and Mg^2+ supplemented with 1% heat-inactivated FCS. Cell surface staining panel included anti-mouse CD163-BV421™, CD80-Alexa fluor 647™, and CD11b-Percp Cy5.5™ (Biolegend™) for 30 minutes at 4° C. Cells were washed with PBS and analyzed with LSRII™ cell sorter (BD Biosciences™).
Eight week old female C57BL/J6 mice were ordered from The Jackson Laboratory™, and fed a standard diet of Animal Care Facility of Vancouver Coastal Health Research institute (4 mice/cage). For induction of vitiligo, mice were immunized by intradermal injections (ID, starting at Day 0) at the left hock, and repeated at 2-week, using the method described by S. You et al. that efficiently induces melanocyte specific CD8+ T cell responses^(53). […] Immunization response score was recorded at 48 hours after the first immunization by evaluating the redness and swelling (0=none, 1=mild, 2=moderate, 3=severe). […]

[4] = tested on: B6 mouse canities model; assay: B6 mouse model of canities (spontaneous hair greying) and aging-associated weight gain; type: in vivo, C57BL/J6 mice; details: 800 ng maresin 1 IP three times a week
Text: To observe aging-associated spontaneous hair greying (canities), C57BL/J6 mice aged 8 weeks were purchased from JAX Labs™ and kept in standard conditions for 8 weeks. The fur color as well as overall appearance and behaviors were monitored daily by visual inspection and by photography. By 6-8 weeks, about 20-40% of the mice would develop spontaneous canities. At the end of observation, central venous blood was collected and used for ELISA analysis using maresin 1 ELISA kit (Caymen Chemicals™) following the manufacturers' recommended protocol with purified maresin 1 serving as the chemical standard.
C57BL/J6 mice from The Jackson Laboratory™, 8 weeks of age were divided into two groups that received intraperitoneal injections of maresin 1 (800 ng in 100 μl saline) or saline alone three times a week for 6 weeks. […] At the end of the experiment, the mice were photographed and weighed.

[5] = tested on: B6 mouse Vitiligo model; assay: B6 mouse model of vitiligo with TRP2 immunization; type: in vivo, C57BL/J6 mice
Text: ([…], Deming Regression). * p<0.05 (two tailed t test).
Eight week old female C57BL/J6 mice were ordered from The Jackson Laboratory™, and fed a standard diet of Animal Care Facility of Vancouver Coastal Health Research institute (4 mice/cage). For induction of vitiligo, mice were immunized by intradermal injections (ID, starting at Day 0) at the left hock, and repeated at 2-week, using the method described by S. You et al. that efficiently induces melanocyte specific CD8+ T cell responses^(53). The immunogen consisted of TRP2-180 (50 μg) peptide mixed with LPS (5 μg) and CpG ODN 1826 (5 μg) in 50 μL of PBS solution per mouse per injection. Immunization response score was recorded at 48 hours after the first immunization by evaluating the redness and swelling (0=none, 1=mild, 2=moderate, 3=severe). For assessing macrophage M1 and M2 populations, the TRP-immunized and non-immunized mice were anaesthetized 48 hours after immunization for skin sampling at the immunization site and used for cell isolation as described above.
For assessing the effects of maresin 1 treatment, C57BL/J6 mice were randomly assigned to the sham injection control group (200 μl saline IP, n=20) and the Maresin 1 injection group (800 ng in 200 μl saline IP, n=20). […] Mice were monitored 5 times per week and evaluated using a Depigmentation Area Scoring Template (0-5) (FIG. 5C). […]

[6] = cultured human epidermal melanocytes

## C[C@H]1C[C@H]2[C@@H]3CCC4=CC(=O)C=C[C@]4(C)[C@@]3(F)[C@@H](O)C[C@]2(C)[C@@]1(O)C(=O)CCl [clobetasol, reference compound]
[1]
  change in the size of the white areas: did not notice any change

## CCCCC[C@H](O)/C=C/C=C\C=C\C=C\[C@@H](O)[C@@H](O)CCCC(=O)O [lipoxin A4, reference compound]
[2]; SPMs 0 to 300 ng/ml, cultured human epidermal melanocytes
  pro-survival effects on the melanocytes in vitro: significantly decreased melanocyte survival
[2]; [6]
  ability to protect melanocytes: accelerated melanocyte depletion

## CCCCC[C@@H](O)[C@H](O)/C=C/C=C/C=C\C=C\[C@@H](O)CCCC(=O)O [lipoxin B4, 5S,14R,15S-trihydroxy-6E,8Z,10E,12E-eicosatetraenoic acid]
[2]; [6]
  ability to protect melanocytes: show ability to protect melanocytes

## CC/C=C\C/C=C\C[C@H](O)\C=C/C=C/C=C/[C@H](O)C/C=C\CCC(=O)O [maresin 1, 7R, 14S-dihydroxy-4Z, 8E, 10E, 12Z, 16Z, 19Z-docosahexaenoic acid]
[3]; maresin 1 800 ng/mouse IP pretreatment, skin 48 hours after TRP2 immunization, CD163+/CD80+ cells
  post-immunization M2/M1 ratio at the TRP2 immunization site: restoring the post-immunization M2/M1 ratio to a level above the pre-immunization state
[3]; maresin 1 treatment, increase from 0.44
  M2/M1 ratio in the skin of B6 mice: 5.34
[4]; saline control 15% by 15 weeks of age, p<0.0125 Log Rank
  canities development: completely blocked
[4]; saline control 17.7%, p=0.0423
  aging associated weight gain: 14.2%
[1]; 0.01% maresin 1 in ethanol twice daily, by the end of three months
  repigmentation: significant repigmentation
[1]; 0.01% maresin 1 in ethanol twice daily, three months, 1.0×0.8 cm macule right 4th metacarpal head
  decrease of lesion area, third lesion: 11.1%
[1]; 0.01% maresin 1 in ethanol twice daily, three months, 1.3×1.0 cm patch right third metacarpal head
  decrease of lesion area, second lesion: 10.5%
[1]; 0.01% maresin 1 in ethanol twice daily, three months, 1.5×1.2 cm patch mid right abdomen
  decrease of lesion area, first lesion: 13.6%
[1]; 0.01% maresin 1 in ethanol, topical twice daily
  adverse events such as irritation, itchiness or redness: did no notice any adverse events
[1]; ethanol solution containing 0.01% maresin 1 twice daily, three months
  decrease of the areas of the three depigmented lesions (overall): 11.7%
[5]; maresin 1 800 ng/mouse IP three times per week for 8 weeks vs saline (sham)
  vitiligo development (average depigmentation score at immunization site): significant reduction of vitiligo development
[5]; maresin 1 800 ng/mouse IP, 48 hours after TRP2 immunization, vs saline
  immunization response (peak score, erythema + edema): significantly reduced the immunization response
[2]; [6]
  ability to protect melanocytes: show ability to protect melanocytes
[2]; maresin 1 10 to 300 ng/ml, three days, p<0.01
  melanocyte depletion (surviving melanocytes) after growth factor supplement withdrawal: significant reduction of melanocyte depletion
[2]; three days in culture, no growth factor supplement
  melanocyte depletion caused by growth factor withdrawal: markedly reducing melanocyte depletion

## CC/C=C\C/C=C\C[C@H](O)[C@H](O)/C=C/C=C/C=C\C/C=C\CCC(=O)O [maresin 2, 13R,14S-dihydroxy-4Z,7Z,9E,11E,16Z,19Z-docosahexaenoic acid]
[2]; [6]
  ability to protect melanocytes: show ability to protect melanocytes

## CC/C=C\C[C@H](O)\C=C/C=C/C=C/[C@H](O)C/C=C\C/C=C\CCC(=O)O [protectin D1, 10R,17S-dihydroxy-4Z,7Z,11E,13E,15Z,19Z-docosahexaenoic acid]
[2]; [6]
  ability to protect melanocytes: show ability to protect melanocytes

## CC/C=C\C[C@H](O)[C@H](O)/C=C/C=C/C=C\C=C\[C@@H](O)C/C=C\CCC(=O)O [resolvin D2, 7S,16R,17S-trihydroxy-4Z,8E,10Z,12E,14E,19Z-docosahexaenoic acid]
[2]; [6]
  ability to protect melanocytes: show ability to protect melanocytes

## CC[C@@H](O)/C=C/C=C\C[C@@H](O)/C=C/C=C/C=C\[C@@H](O)CCCC(=O)O [resolvin E1, 5S,12R,18R-trihydroxy-6Z,8E,10E,14Z,16E-eicosapentaenoic acid]
[2]; [6]
  ability to protect melanocytes: show ability to protect melanocytes

## mometasone fumarate [reference compound]
[1]
  change in the size of the white areas: did not notice any change
